Experimental data: patent US11278561B2, “Combination treatment for hematological cancers” (Geron Corporation, priority 2016, dated 2022)

How the values were obtained:
KG-1 cells = test: Annexin V / Propidium Iodide flow cytometry apoptosis assay in KG-1; assay type: cell-based; parameters: key to Excess over HSA / Excess over BLISS: excess in % apoptotic (Annexin V/PI double-labeled) cells over HSA/Bliss; settings: for Excess over BLISS / Excess over HSA: imetelstat sodium μM: r7 50, r8 25, r9 10, r10 0
Experimental: (§1) AML tumor cells KG-1 (ATCC #CCL-246) and MOLM-13 (DSMZ #ACC554) were plated at a density of ˜20,000 cells per well on 96-well polystyrene U-bottom tissue culture plates (Corning catalog #353777) in RPMI-1640 (ThermoFisher catalog #11875-085) supplemented with 10% fetal bovine serum (ThermoFisher catalog #16140-089) and 1% penicillin/streptomycin antibiotic cocktail (ThermoFisher catalog 15140-122) and grown in a 37° C. incubator under humidified 5% CO2 atmosphere.
(§2) At 48 and 96 hours, cells were measured for healthy, early apoptotic and apoptotic populations with an Annexin V (interior cell membrane stain) plus Propidium Iodide (PI, DNA binding dye) flow cytometry assay kit (BioLegend catalog 640914). Annexin V detects the externalization of phosphatidylserine in apoptotic cells using recombinant annexin V conjugated to green-fluorescent FITC dye and dead cells using Propidium iodide (PI). Propidium iodide stains necrotic cells with red fluorescence. After treatment with both probes, early apoptotic cells show green fluorescence, apoptotic (dead) cells show red and green fluorescence, and live cells show little or no fluorescence. […] Cells were stained for 30 minutes at 4° C. in the dark, followed by 3× washes with PBS and suspension in FACs Stain Buffer (BD catalog 554657) prior to interrogation on a BD FACs Canto flow cytometer for forward scatter, side scatter, FITC, and PE channels. […] The percentage of apoptotic cells (double labeled) was used to calculate combination effects using both the Highest Single Agent (HSA) and Bliss additivity models (J Tang et al. Frontiers in Pharmacology. 2015; 6 (181)).
(§3) Using the HSA model, the cytotoxic effect of the combined condition (“C”) was compared to the effect generated by each of the single agent controls (“A” or “B”) for the respective dose in the combination: Excess over HSA=C−A (if A>B) or C−B (if A<B)
(§4) The Bliss model performs a similar comparison, but instead of the highest effect of single agent, the Bliss model subtracts from the combination a value equal to the sum of each single agent minus their product: Excess over Bliss=C−[(A+B)−(A*B)]

MOLM-13 cells = test: Annexin V / Propidium Iodide flow cytometry apoptosis assay in MOLM-13; assay type: cell-based; parameters: key to Excess over HSA / Excess over BLISS: excess = combination minus HSA/Bliss expected, in % apoptotic cells; settings: for Excess over BLISS / Excess over HSA: imetelstat sodium μM: r7 50, r8 25, r9 10, r10 0
Experimental: as §1, §2, §3, §4
Treated cells were analyzed by Flow cytometry for Annexin V and Propidium Iodide staining as described previously. Events gated in the apoptotic population (Annexin V+/Propidium Iodide+) were used to determine synergy scores for the combination matrix. Combination data analysis was generated by the Horizon Chalice™ Analyzer Software (Horizon Discovery Group, Cambridge, UK). […] Mismatch and non-complimentary controls were not utilized in this experiment.
Combination conditions undergo isobolar analysis to generate a combination index and graphically represent the behavior of a combination with synergistic pairs falling below the isobologram and antagonistic falling above it (additive combinations would be expected to fall on the line). The Horizon Chalice™ Analyzer Software additionally provides a synergy score, with values greater than 1 indicating synergy.

hTERT [1] = test: hTERT transcription levels by RT-qPCR in MOLM-13; assay type: cell-based, human; settings: MOLM-13, 96 hours; 50 μM imetelstat sodium and/or 20 nM ABT-199
Experimental: (§5) Samples from cell experiments (and single agent controls) were collected for molecular analyses to assess combination effects contributing to potential mechanisms of action. […] Nucleic acids were purified by first lysing cells with 350 μL of RLT Buffer (Qiagen catalog #1030963) supplemented with 2-mercaptoethanol (Sigma catalog #63689-100ML-F). RNA was purified with the AllPrep RNA/DNA Mini Kit (Qiagen catalog #80204) and reverse transcribed to cDNA using a High Capacity cDNA kit (ThermoFisher catalog #4368814) and pre-amplified prior to analysis with TaqMan PreAmp Master Mix (ThermoFisher catalog #4384557B). Products were analyzed using an in-house developed Taq-Man RT-qPCR assay to measure hTERT transcription levels (TaqMan Universal PCR Master Mix—ThermoFisher catalog #4304437; primer and probe sequences below) using a ViiA7 Real-Time PCR system from ThermoFisher: […]

hTERT [2] = test: hTERT transcription levels by RT-qPCR in KG-1; assay type: cell-based, human; settings: 20 nM ABT-199, at either time point (48 or 96 hours)
Experimental: as §5

[3] = MOLM-13, 48 hours, ABT-199 1 nM
[4] = MOLM-13, 48 hours, ABT-199 5 nM
[5] = MOLM-13, 48 hours, ABT-199 20 nM
[6] = MOLM-13, 48 hours, ABT-199 100 nM
[7] = MOLM-13, 48 hours, ABT-199 500 nM
[8] = MOLM-13, 96 hours, ABT-199 1 nM
[9] = MOLM-13, 96 hours, ABT-199 5 nM
[10] = MOLM-13, 96 hours, ABT-199 20 nM
[11] = MOLM-13, 96 hours, ABT-199 100 nM
[12] = MOLM-13, 96 hours, ABT-199 500 nM

CC1(C)CCC(CN2CCN(c3ccc(C(=O)NS(=O)(=O)c4ccc(NCC5CCOCC5)c([N+](=O)[O-])c4)c(Oc4cnc5[nH]ccc5c4)c3)CC2)=C(c2ccc(Cl)cc2)C1 [ABT-199, 4-[4-[[2-(4-chlorophenyl)-4,4-dimethylcyclohexen-1-yl]methyl]piperazin-1-yl]-N-[3-nitro-4-(oxan-4-ylmethylamino)phenyl]sulfonyl-2-(1H-pyrrolo [2,3-b]pyridin-5-yloxy)benzamide]
~14%: % apoptotic cells (double label) (KG-1 cells; KG-1, 48 hours, ABT-199 500 nM)
~9%: % apoptotic cells (double label) (KG-1 cells; KG-1, 48 hours, ABT-199 100 nM)
~6%: % apoptotic cells (double label) (KG-1 cells; KG-1, 96 hours, ABT-199 100 nM)
90-95%: hTERT RNA expression level, percentage of untreated controls (hTERT [2])
~19%: % apoptotic cells (double label) (MOLM-13 cells; [6])
30%: apoptotic activity (MOLM-13 cells; MOLM-13, after 48 hours, concentrations not given)
0: Excess over BLISS (KG-1 cells; KG-1, 48 hours (title of Table 6), ABT-199 1 nM) | Excess over BLISS (KG-1 cells; KG-1, 48 hours (title of Table 6), ABT-199 5 nM) | Excess over BLISS (KG-1 cells; KG-1, 48 hours (title of Table 6), ABT-199 20 nM) | Excess over BLISS (KG-1 cells; KG-1, 48 hours (title of Table 6), ABT-199 100 nM) | Excess over BLISS (KG-1 cells; KG-1, 48 hours (title of Table 6), ABT-199 500 nM) | Excess over BLISS (KG-1 cells; KG-1, 48 hours, ABT-199 1 nM) | Excess over HSA (KG-1 cells; KG-1, 48 hours, ABT-199 1 nM) | Excess over BLISS (KG-1 cells; KG-1, 48 hours, ABT-199 5 nM) | Excess over HSA (KG-1 cells; KG-1, 48 hours, ABT-199 5 nM) | Excess over BLISS (KG-1 cells; KG-1, 48 hours, ABT-199 20 nM) | Excess over HSA (KG-1 cells; KG-1, 48 hours, ABT-199 20 nM) | Excess over BLISS (KG-1 cells; KG-1, 48 hours, ABT-199 100 nM) | Excess over HSA (KG-1 cells; KG-1, 48 hours, ABT-199 100 nM) | Excess over BLISS (KG-1 cells; KG-1, 48 hours, ABT-199 500 nM) | Excess over HSA (KG-1 cells; KG-1, 48 hours, ABT-199 500 nM) | Excess over HSA (KG-1 cells; KG-1, 96 hours, ABT-199 1 nM) | Excess over HSA (KG-1 cells; KG-1, 96 hours, ABT-199 5 nM) | Excess over HSA (KG-1 cells; KG-1, 96 hours, ABT-199 20 nM) | Excess over HSA (KG-1 cells; KG-1, 96 hours, ABT-199 100 nM) | Excess over HSA (KG-1 cells; KG-1, 96 hours, ABT-199 500 nM) | Excess over BLISS (MOLM-13 cells; [3]) | Excess over HSA (MOLM-13 cells; [3]) | Excess over BLISS (MOLM-13 cells; [4]) | Excess over HSA (MOLM-13 cells; [4]) | Excess over BLISS (MOLM-13 cells; [5]) | Excess over HSA (MOLM-13 cells; [5]) | Excess over BLISS (MOLM-13 cells; [6]) | Excess over HSA (MOLM-13 cells; [6]) | Excess over BLISS (MOLM-13 cells; [7]) | Excess over HSA (MOLM-13 cells; [7]) | Excess over BLISS (MOLM-13 cells; [8]) | Excess over HSA (MOLM-13 cells; [8]) | Excess over BLISS (MOLM-13 cells; [9]) | Excess over HSA (MOLM-13 cells; [9]) | Excess over BLISS (MOLM-13 cells; [10]) | Excess over HSA (MOLM-13 cells; [10]) | Excess over BLISS (MOLM-13 cells; [11]) | Excess over HSA (MOLM-13 cells; [11]) | Excess over BLISS (MOLM-13 cells; [12]) | Excess over HSA (MOLM-13 cells; [12])
~10%: % apoptotic cells (double label) (KG-1 cells; KG-1, 96 hours, ABT-199 500 nM)
> 30%: cell death (MOLM-13 cells; MOLM-13, 96 hours, ABT-199 at 5, 20, 100 and 500 nM)
~30%: % apoptotic cells (double label) (MOLM-13 cells; [7])
~69%: hTERT RNA expression level, percentage of untreated controls (hTERT [1])
